Test results taken from paper PMC10082777, “Pyrazole-sulfonamide scaffold featuring dual-tail strategy as apoptosis inducers in colon cancer” (Scientific Reports, 2023).

Target: T1, Carbonic Anhydrase IX (CA IX) (Homo sapiens, UniProt Q16790)
T1 construct: gene CA9; AA 1-459, GST tag
Assay: CA inhibitor screening kit (BioVision K473-100), recombinant CA IX, absorbance at […] nm, kinetic mode
Format: biochemical

| SMILES | IC50 [µM] |
| --- | --- |
| Nc1cc(Nc2ccc(S(=O)(=O)Nc3ccccn3)cc2)n(-c2ccccc2)n1 [compound 3, 4-((3-Amino-1-phenyl-1H-pyrazol-5-yl)amino)-N-(pyridin-2-yl) benzenesulfonamide] | 0.336 |
| Nc1nn(-c2ccccc2)c(-c2ccccc2)c1C(=O)Nc1ccc(S(=O)(=O)Nc2ccccn2)cc1 [compound 11, 3-Amino-1,5-diphenyl-N-(4-(N-(pyridin-2-yl)sulfamoyl)phenyl)-1H-pyrazole-4-carboxamide] | 0.128 |
